Measured values from ChEMBL document CHEMBL3044588, “Microwave-mediated synthesis of triazolothiadiazoles as anti-inflammatory, analgesic, and anti-oxidant agents” (Med Chem Res, 2012).
Activity calls are given as the source filed them. The rule behind the calls is not given here.

What was measured:
Rattus norvegicus [1] = assay: Anti-inflammatory activity in Rattus norvegicus Wistar albino (rat) assessed as inhibition of carrageenan-induced paw edema at 20 mg/kg, po administered 30 min before carrageenan challenge measured after 0.5 hr relative to control; format: functional
Mus musculus [2] = assay: Analgesic activity in Mus musculus Swiss albino (mouse) assessed as increase in reaction time at 10 mg/kg, po after 0.5 hr by tail-flick method relative to control; format: functional
Mus musculus [3] = assay: Analgesic activity in Mus musculus Swiss albino (mouse) assessed as increase in reaction time at 10 mg/kg, po after 1.5 hr by tail-flick method relative to control; format: functional
Mus musculus [4] = assay: Analgesic activity in Mus musculus Swiss albino (mouse) assessed as increase in reaction time at 10 mg/kg, po after 1 hr by tail-flick method relative to control; format: functional
Rattus norvegicus [5] = assay: Anti-inflammatory activity in Rattus norvegicus Wistar albino (rat) assessed as inhibition of carrageenan-induced paw edema at 20 mg/kg, po administered 30 min before carrageenan challenge measured after 3 hr relative to control; format: functional
Rattus norvegicus [6] = assay: Anti-inflammatory activity in Rattus norvegicus Wistar albino (rat) assessed as inhibition of carrageenan-induced paw edema at 20 mg/kg, po administered 30 min before carrageenan challenge measured after 2.5 hr relative to control; format: functional
Rattus norvegicus [7] = assay: Anti-inflammatory activity in Rattus norvegicus Wistar albino (rat) assessed as inhibition of carrageenan-induced paw edema at 20 mg/kg, po administered 30 min before carrageenan challenge measured after 2 hr relative to control; format: functional
Rattus norvegicus [8] = assay: Anti-inflammatory activity in Rattus norvegicus Wistar albino (rat) assessed as inhibition of carrageenan-induced paw edema at 20 mg/kg, po administered 30 min before carrageenan challenge measured after 1.5 hr relative to control; format: functional
Rattus norvegicus [9] = assay: Anti-inflammatory activity in Rattus norvegicus Wistar albino (rat) assessed as inhibition of carrageenan-induced paw edema at 20 mg/kg, po administered 30 min before carrageenan challenge measured after 1 hr relative to control; format: functional
Rattus norvegicus [10] = assay: Ulcerogenic activity in Rattus norvegicus Wistar albino (rat) assessed as ulcer index at 200 mg/kg, po after 17 hr; format: toxicity, organism-based; parameters: dose 200 mg/kg, route oral; conditions: in vivo
[11] = tested on: Radical scavenging activity; assay: Antioxidant activity assessed as DPPH free radical scavenging activity at 100 ug/ml after 30 min; format: functional
Mus musculus [12] = assay: Analgesic activity in po dosed Mus musculus Swiss albino (mouse) assessed as increase in reaction time after 1.5 hr by tail-flick method relative to control; format: functional
Mus musculus [13] = assay: Analgesic activity in po dosed Mus musculus Swiss albino (mouse) assessed as increase in reaction time after 1 hr by tail-flick method relative to control; format: functional
Mus musculus [14] = assay: Analgesic activity in po dosed Mus musculus Swiss albino (mouse) assessed as increase in reaction time after 0.5 hr by tail-flick method relative to control; format: functional
[15] = Antioxidant activity assessed as nitric oxide radical scavenging activity at 40 ug/ml after 150 min by Griess Illosvoy reaction; format: functional
[16] = Antioxidant activity assessed as nitric oxide radical scavenging activity at 20 ug/ml after 150 min by Griess Illosvoy reaction; format: functional
[17] = Antioxidant activity assessed as superoxide radical scavenging activity at 100 ug/ml after 5 min by NBT reduction assay; format: functional
[18] = Antioxidant activity assessed as superoxide radical scavenging activity at 80 ug/ml after 5 min by NBT reduction assay; format: functional
[19] = Antioxidant activity assessed as superoxide radical scavenging activity at 60 ug/ml after 5 min by NBT reduction assay; format: functional
[20] = Antioxidant activity assessed as superoxide radical scavenging activity at 40 ug/ml after 5 min by NBT reduction assay; format: functional
[21] = Antioxidant activity assessed as superoxide radical scavenging activity at 20 ug/ml after 5 min by NBT reduction assay; format: functional
[22] = Antioxidant activity assessed as hydroxyl radical scavenging activity at 80 ug/ml after 4 hr; format: functional
[23] = Antioxidant activity assessed as hydroxyl radical scavenging activity at 100 ug/ml after 4 hr; format: functional
[24] = Antioxidant activity assessed as hydroxyl radical scavenging activity at 60 ug/ml after 4 hr; format: functional
[25] = Antioxidant activity assessed as hydroxyl radical scavenging activity at 40 ug/ml after 4 hr; format: functional
[26] = Antioxidant activity assessed as hydroxyl radical scavenging activity at 20 ug/ml after 4 hr; format: functional
Staphylococcus aureus = assay: Antibacterial activity against Staphylococcus aureus by well diffusion method; format: functional, organism-based
Aspergillus = assay: Antifungal activity against Aspergillus by well diffusion method; format: functional, organism-based
Escherichia coli = assay: Antibacterial activity against Escherichia coli by well diffusion method; format: functional, organism-based
Rattus norvegicus [27] = assay: Ulcerogenic activity in Rattus norvegicus Wistar albino (rat) assessed as ulcer index at equimolar dose of relative to 200 mg/kg of ibuprofen, po after 17 hr; format: toxicity, organism-based; parameters: dose 200 mg/kg, route oral; conditions: in vivo
[28] = Antioxidant activity assessed as nitric oxide radical scavenging activity at 100 ug/ml after 150 min by Griess Illosvoy reaction; format: functional
[29] = Antioxidant activity assessed as nitric oxide radical scavenging activity at 80 ug/ml after 150 min by Griess Illosvoy reaction; format: functional
[30] = Antioxidant activity assessed as nitric oxide radical scavenging activity at 60 ug/ml after 150 min by Griess Illosvoy reaction; format: functional

SMILES	inhibition in vivo at 20 mg/kg (Rattus norvegicus [1])	inhibition in vivo at 20 mg/kg (Rattus norvegicus [5])	inhibition in vivo at 20 mg/kg (Rattus norvegicus [6])	inhibition in vivo at 20 mg/kg (Rattus norvegicus [7])	inhibition in vivo at 20 mg/kg (Rattus norvegicus [8])	inhibition in vivo at 20 mg/kg (Rattus norvegicus [9])	inhibition [11]	Activity (Mus musculus [12])	Activity (Mus musculus [13])	Activity (Mus musculus [14])	also measured
CC(C)Cc1ccc(C(C)C(=O)O)cc1 (stereo not drawn) [IBUPROFEN]	20%	42%	39%	36%	25%	18%					Activity (Mus musculus [2]): 11.73%; Activity (Mus musculus [3]): 30.04%; Activity (Mus musculus [4]): 22.53%; UI (Rattus norvegicus [10]): 29.37
Cc1nn2c(C(C)c3ccc(CC(C)C)cc3)nnc2s1 (stereo not drawn)	64%	62%	56%	58%	62%	43%	7.9%	42.66%	32%	26.66%	
CCCc1nn2c(C(C)c3ccc(CC(C)C)cc3)nnc2s1 (stereo not drawn)	10%	34%	31%	28%	24%	15%	77.9%				inhibition [15]: 26.7%; inhibition [16]: 14.3%; inhibition [17]: 58.6%; inhibition [18]: 53%; inhibition [19]: 42.4%; inhibition [20]: 36.4%; inhibition [21]: 24.5%; inhibition [22]: 56.4%; inhibition [23]: 62.4%; inhibition [24]: 44.2%; inhibition [25]: 38.7%; inhibition [26]: 26.1%; Activity (Staphylococcus aureus): inactive; Activity (Aspergillus): inactive; Activity (Escherichia coli): inactive; UI (Rattus norvegicus [27]): 8.54; inhibition [28]: 52.6%; inhibition [29]: 46.7%; inhibition [30]: 38.3%
CC(C)Cc1ccc(C(C)c2nnc3sc(-c4ccc([N+](=O)[O-])cc4Cl)nn23)cc1 (stereo not drawn)		69%	67%	67%	59%	4%	1.71%	41.61%	31.79%	17.34%	
Cc1cc(C(C)(C)C)c(O)c(C(C)(C)C)c1							84.8%				inhibition [17]: 72.5%; inhibition [23]: 68.3%; inhibition [28]: 62.2%
CC(C)=CCN1CC[C@@]2(C)c3cc(O)ccc3C[C@@H]1[C@@H]2C (racemic)											Activity (Mus musculus [2]): 20.44%; Activity (Mus musculus [3]): 77.34%; Activity (Mus musculus [4]): 40.33%
O=C(O)Cc1ccccc1Nc1c(Cl)cccc1Cl [DICLOFENAC]	82%	75%	73%	76%	80%	65%					
CCc1nn2c(C(C)c3ccc(CC(C)C)cc3)nnc2s1 (stereo not drawn)	5%	55%	44%	45%	49%	22%	5.61%	30.06%	16.33%	7.18%	
CC(C)Cc1ccc(C(C)c2nnc3sc(-c4ccccc4Cl)nn23)cc1 (stereo not drawn)	64%	59%	58%	59%	57%	43%	4.46%	78.2%	39.74%	19.23%	
